# Patent US12370235B2, “Synthetic, non-natural antimicrobial peptides inspired by Staphylococcus auricularis delta toxin” (University of Saskatchewan, priority 2021, dated 2025)
# Ends that are not written are not given here.
# Key:
# S. aureus ATCC 29213 = assay: MIC, broth dilution; type: cell-based, Staphylococcus aureus; settings: for MIC (μg/mL) S. aureus: liquid broth; for MIC S. aureus: S. aureus ATCC 29213
# Description: (§1) MIC determination. MICs were measured using peptides with 95% purity. For bacterial studies, cation-adjusted Mueller Hinton (MH) broth was used as the growth medium whereas Yeast Peptone Dextrose (YPD; 10 g/L yeast extract, 20 g/L peptone, 20 g/L dextrose) was used for Candida spp. and other yeast. Microorganisms were diluted to an optical density of […] in MH or YPD broth and a 180 μl volume was mixed with 20 μl of peptide arrayed as a 2-fold dilution series in a flat-bottom 96-well microtitre plate. A control was performed using 20 μl of sterile water. Plates were incubated as standing cultures overnight at 37° C.
# (§2) Determination of minimum inhibitory concentrations. The MICs were measured for bioactive peptides identified from the initial screen. For bacterial studies, cation-adjusted Mueller Hinton (MH) broth was used as the growth medium whereas YPD was used for C. albicans. Bacterial cultures were diluted to a OD value of 6×10^−4 in MH broth and a 180 μl volume was mixed with 20 μl of peptide arrayed as 2-fold dilution series in a 96-well plate. For the positive control, 20 μl of sterile water was used. Plates were incubated as standing cultures overnight at 37° C. The lowest peptide concentration that resulted no observed microbial growth after an overnight treatment was defined as the MIC.
# [1] = tested on: S. aureus ATCC BAA-1683 (MRSA SCCmec type IV); assay: MIC, broth dilution; type: cell-based, Staphylococcus aureus; settings: Table 5; STIP3 variants, highest concentration 100 μg/mL
# Description: as §1, §2
# [2] = tested on: S. aureus ATCC BAA-2313 (MRSA SCCmec type XI); assay: MIC, broth dilution; type: cell-based, Staphylococcus aureus; settings: Table 5; STIP3 variants, highest concentration 100 μg/mL
# Description: as §1, §2
# [3] = tested on: S. aureus ATCC BAA-41 (MRSA SCCmec type II); assay: MIC, broth dilution; type: cell-based, Staphylococcus aureus; settings: Table 5; STIP3 variants, highest concentration 100 μg/mL
# Description: as §1, §2
# [4] = tested on: S. aureus ATCC 33592 (MRSA SCCmec type III); assay: MIC, broth dilution; type: cell-based, Staphylococcus aureus; settings: Table 5; STIP3 variants, highest concentration 100 μg/mL
# Description: as §1, §2
# [5] = tested on: S. aureus ATCC BAA-2094 (MRSA SCCmec type V); assay: MIC, broth dilution; type: cell-based, Staphylococcus aureus; settings: Table 5; STIP3 variants, highest concentration 100 μg/mL
# Description: as §1, §2
# [6] = tested on: S. aureus ATCC BAA-42 (MRSA SCCmec type VI); assay: MIC, broth dilution; type: cell-based, Staphylococcus aureus; settings: Table 5; STIP3 variants, highest concentration 100 μg/mL
# Description: as §1, §2
# [7] = tested on: S. aureus ATCC BAA-44 (MRSA SCCmec type I); assay: MIC, broth dilution; type: cell-based, Staphylococcus aureus; settings: Table 5; STIP3 variants, highest concentration 100 μg/mL
# Description: as §1, §2
# C. albicans MYA-2876 = assay: MIC, YPD broth; type: cell-based, Candida albicans; settings: for MIC C. albicans: Candida albicans MYA-2876
# Description: as §1, §2
# [8] = tested on: Mannheimia haemolytica ATCC 33393; assay: MIC, broth dilution; type: cell-based; settings: for MIC M. haemolytica: M. haemolytica ATCC 33393
# Description: as §1, §2
# The ability of STIP3 variants to inhibit the growth of Mannheimia haemolytica ATCC 33393 was evaluated. This included an alanine scan of STIP3-1 (FIG. 8 & Table 10) as well as 30 rationally-designed STIPs that were evaluated in the preceding Examples against other pathogens (Table 11). Substitutions at a greater number of sites were tolerated in the context of antimicrobial activity. Moreover, the inclusion of basic natural and unnatural amino acids (e.g. lysine, ornithine, and arginine) at positions 3, 4 and 11 (i.e. X1, X2, and X4 of SEQ ID NO: 32) to afford a more uniformly cationic peptide increased activity against M. haemolytica.
# [9] = tested on: Candida haemulonii AR 395; assay: MIC, YPD broth, CDC and FDA AR Candida isolate panel; type: cell-based; settings: Table 9 below the line: only 200 or 100 μg/mL tested; values reported as 100 are ≤100 μg/mL
# Description: as §1
# [10] = tested on: Saccharomyces cerevisiae AR 400; assay: as above; type: cell-based; settings: Table 9 below the line: only 200 or 100 μg/mL tested; values reported as 100 are ≤100 μg/mL
# Description: as §1
# Candida krusei AR 397 = assay: as above; type: cell-based; settings: Table 9 below the line: only 200 or 100 μg/mL tested; values reported as 100 are ≤100 μg/mL
# Description: as §1
# [11] = tested on: Candida duobushaemulonii AR 394; assay: as above; type: cell-based; settings: Table 9 below the line: only 200 or 100 μg/mL tested; values reported as 100 are ≤100 μg/mL
# Description: as §1
# [12] = tested on: Saccharomyces cerevisiae AR 399; assay: as above; type: cell-based; settings: Table 9 below the line: only 200 or 100 μg/mL tested; values reported as 100 are ≤100 μg/mL
# Description: as §1
# [13] = tested on: Candida haemulonii AR 393; assay: as above; type: cell-based; settings: Table 9 below the line: only 200 or 100 μg/mL tested; values reported as 100 are ≤100 μg/mL
# Description: as §1
# [14] = tested on: Candida lusitaniae AR 398; assay: as above; type: cell-based; settings: Table 9 below the line: only 200 or 100 μg/mL tested; values reported as 100 are ≤100 μg/mL
# Description: as §1
# [15] = tested on: Candida duobushaemulonii AR 392; assay: as above; type: cell-based; settings: Table 9 below the line: only 200 or 100 μg/mL tested; values reported as 100 are ≤100 μg/mL
# Description: as §1
# Kodamae ohmeri AR 396 = assay: as above; type: cell-based; settings: Table 9 below the line: only 200 or 100 μg/mL tested; values reported as 100 are ≤100 μg/mL
# Description: as §1
# [16] = tested on: Candida duobushaemulonii AR 391; assay: as above; type: cell-based; settings: Table 9 below the line: only 200 or 100 μg/mL tested; values reported as 100 are ≤100 μg/mL
# Description: as §1
# M. luteus ATCC 4698 = assay: MIC, broth dilution; type: cell-based, Micrococcus luteus; settings: for MIC (μg/mL) M. luteus: Table 4, liquid broth; for MIC M. luteus: M. luteus ATCC 4698
# Description: as §1, §2
Substance,MIC (μg/mL) S. aureus (S. aureus ATCC 29213; Table 4),MIC (μg/mL) S. aureus (S. aureus ATCC 29213; Table 10),"MIC (μg/mL) M. haemolytica ([8]; Table 10, liquid broth)",MIC (μg/mL) M. luteus (M. luteus ATCC 4698),MIC S. aureus (S. aureus ATCC 29213),MIC C. albicans (C. albicans MYA-2876),MIC M. haemolytica [8],MIC M. luteus (M. luteus ATCC 4698),other results
"TVGVLVKWILDTVKKFA [STIP3-8, TVGVLVKWILDTVKKFA]",–,–,–,–,–,–,–,–,"MIC S. aureus ATCC 29213 (S. aureus ATCC 29213; Table 5, STIP3 variants, highest concentration 100 μg/mL): 100 µg/mL; MIC S. aureus ATCC BAA 1683 (IV) [1]: > (no inhibition was observed at the highest concentration of peptide tested: 100 μg/mL for the STIP3 variants); MIC S. aureus ATCC BAA 2313 (XI) [2]: 100 µg/mL; MIC S. aureus ATCC BAA 41 (II) [3]: 100 µg/mL; MIC S. aureus ATCC 33592 (III) [4]: 100 µg/mL; MIC S. aureus ATCC BAA 2094 (V) [5]: 100 µg/mL; MIC S. aureus ATCC BAA 42 (VI) [6]: 100 µg/mL; MIC S. aureus ATCC BAA 44 (I) [7]: 100 µg/mL; MIC C. albicans MYA-2876 (C. albicans MYA-2876; Table 8): > (> symbol indicates that no inhibition was observed at the highest concentration of peptide tested: 100 μg/mL); MIC (μg/mL) M. haemolytica ([8]; Table 11, highest concentration 25 μg/mL): > (> symbol indicates that no inhibition was observed at the highest concentration of peptide tested: 25 μg/mL); MIC (μg/mL) Candida haemulonii AR 395 [9]: > (values below the line were determined using two concentrations of peptide 200 or 100 μg/mL); MIC (μg/mL) Saccharomyces cerevisiae AR 400 [10]: ≤ 100 µg/mL; MIC (μg/mL) Candida krusei AR 397 (Candida krusei AR 397): ≤ 100 µg/mL; MIC (μg/mL) Candida duobushaemulonii AR 394 [11]: > (values below the line were determined using two concentrations of peptide 200 or 100 μg/mL); MIC (μg/mL) Saccharomyces cerevisiae AR 399 [12]: ≤ 100 µg/mL; MIC (μg/mL) Candida haemulonii AR 393 [13]: > (values below the line were determined using two concentrations of peptide 200 or 100 μg/mL); MIC (μg/mL) Candida lusitaniae AR 398 [14]: 180 µg/mL; MIC (μg/mL) Candida duobushaemulonii AR 392 [15]: > (values below the line were determined using two concentrations of peptide 200 or 100 μg/mL); MIC (μg/mL) Kodamae ohmeri AR 396 (Kodamae ohmeri AR 396): > (values below the line were determined using two concentrations of peptide 200 or 100 μg/mL); MIC (μg/mL) Candida duobushaemulonii AR 391 [16]: > (values below the line were determined using two concentrations of peptide 200 or 100 μg/mL)"
"TVGGLVAWILDTVKKFA [K7A, TVGGLVAWILDTVKKFA]",> (> = >200 μg/mL (maximum concentration tested)),> (the use of > indicates an MIC > 200 μg/mL; the maximum concentration tested),> (the use of > indicates an MIC > 200 μg/mL; the maximum concentration tested),200 µg/mL,–,–,–,–,–
TVTKFVKLIAKTVKKFTK-NH2 [STIP9-3],–,–,–,–,> (the use of > indicates an MIC >200 μg/mL; the maximum concentration tested),100 µg/mL,100 µg/mL,3.13 µg/mL,–
"TVGGLAKWILDTVKKFA [V6A, TVGGLAKWILDTVKKFA]",> (> = >200 μg/mL (maximum concentration tested)),> (the use of > indicates an MIC > 200 μg/mL; the maximum concentration tested),100 µg/mL,50 µg/mL,–,–,–,–,–
"TVGGLVKWALDTVKKFA [I9A, TVGGLVKWALDTVKKFA]",> (> = >200 μg/mL (maximum concentration tested)),> (the use of > indicates an MIC > 200 μg/mL; the maximum concentration tested),> (the use of > indicates an MIC > 200 μg/mL; the maximum concentration tested),200 µg/mL,–,–,–,–,–
"TVGGAVKWILDTVKKFA [L5A, TVGGAVKWILDTVKKFA]",> (> = >200 μg/mL (maximum concentration tested)),> (the use of > indicates an MIC > 200 μg/mL; the maximum concentration tested),> (the use of > indicates an MIC > 200 μg/mL; the maximum concentration tested),100 µg/mL,–,–,–,–,–
"TVGGLVKWILDTVKKAA [F16A, TVGGLVKWILDTVKKAA]",> (> = >200 μg/mL (maximum concentration tested)),> (the use of > indicates an MIC > 200 μg/mL; the maximum concentration tested),> (the use of > indicates an MIC > 200 μg/mL; the maximum concentration tested),200 µg/mL,–,–,–,–,–
TVKSFVNLILKTVKKYAK-NH2 [STIP8-3],–,–,–,–,> (the use of > indicates an MIC >200 μg/mL; the maximum concentration tested),> (the use of > indicates an MIC >200 μg/mL; the maximum concentration tested),50 µg/mL,3.13 µg/mL,–
TVKSFVNLILKTVKKYAK [STIP8-2],–,–,–,–,> (the use of > indicates an MIC >200 μg/mL; the maximum concentration tested),100 µg/mL,100 µg/mL,6.25 µg/mL,–
TVKSFVNLILDTVKKYAK [STIP8-1],–,–,–,–,> (the use of > indicates an MIC >200 μg/mL; the maximum concentration tested),100 µg/mL,> (the use of > indicates an MIC >200 μg/mL; the maximum concentration tested),100 µg/mL,–
"TAGGLVKWILDTVKKFA [V2A, TAGGLVKWILDTVKKFA]",> (> = >200 μg/mL (maximum concentration tested)),> (the use of > indicates an MIC > 200 μg/mL; the maximum concentration tested),100 µg/mL,50 µg/mL,–,–,–,–,–
TVTKFVKLIAKTVKKFTK [STIP9-2],–,–,–,–,> (the use of > indicates an MIC >200 μg/mL; the maximum concentration tested),25 µg/mL,100 µg/mL,6.25 µg/mL,–
"TVGGLVKWILDTAKKFA [V13A, TVGGLVKWILDTAKKFA]",200 µg/mL,–,200 µg/mL,50 µg/mL,–,–,–,–,–
"TVGGLVKAILDTVKKFA [W8A, TVGGLVKAILDTVKKFA]",> (> = >200 μg/mL (maximum concentration tested)),> (the use of > indicates an MIC > 200 μg/mL; the maximum concentration tested),200 µg/mL,100 µg/mL,–,–,–,–,–
TVTKFVKLIAETVKKFTK [STIP9-1],–,–,–,–,> (the use of > indicates an MIC >200 μg/mL; the maximum concentration tested),100 µg/mL,200 µg/mL,50 µg/mL,–
"TVGGLVKWIADTVKKFA [L10A, TVGGLVKWIADTVKKFA]",> (> = >200 μg/mL (maximum concentration tested)),> (the use of > indicates an MIC > 200 μg/mL; the maximum concentration tested),200 µg/mL,200 µg/mL,–,–,–,–,–
